Experimental data as given in US10940188B2, “Compounds and methods for treatment and prevention of Flavivirus infection” (priority 2016, dated 2021).
Where a name gives a salt, the structure may show the parent alone. Read-outs that look alike come from different tables or passages of the source.

Tests used:
[1] = system: ZIKV-induced caspase 3/7 activity in hNPCs; experiment: Caspase 3/7 activity assay, ZIKV-infected hNPCs; assay type: cell-based; settings: Homo sapiens; for IC50: read-out: Caspase 3 (IC50, uM) NPCs; for Emax: read-out: Caspase 3 (efficacy, %) NPCs
Experimental: (§1) Caspase-Glo 3/7 assay kit (catalog number G8092; Promega, Madison, Wis.) was used to detect caspase 3/7 activity. Reagents were reconstituted as described in the protocol from the manufacturer. Polystyrene plates (384-well and 1536-well; regular tissue culture treated and PDL coated) were purchased from Greiner Bio-One (Monroe, N.C.). Cells were seeded in 384- and 1536-well assay plates and cultured at 37° C. with 5% CO2 for 16 hours. ZIKV solution was added to cells, followed by incubation at 37° C. with 5% CO2 for 6 hours. Caspase-Glo 3/7 was added to each well, unless otherwise specified, and incubated at room temperature for 30 minutes. The luminescence intensity of the assay plates was measured using a ViewLux plate reader (PerkinElmer). Data were normalized by using the cell-containing wells without ZIKV as a negative control (0% induction of caspase 3/7 activity) and wells containing ZIKV infected cells that induced caspase 3/7 activity were used as a positive control (100% induction of caspase 3/7 activity).
Human NPCs were seeded onto PDL coated 1536-well assay plates at 250 cells per 3 μl/well and incubated at 37° C. in 5% CO2 for 16 hours. Test compounds dissolved in DMSO were transferred to assay plates at a volume of 23 nl/well by an automated pintool workstation (Wako Automation, San Diego, Calif.). Compounds were incubated with cells for 30 minutes at 37° C. in 5% CO2, immediately followed by the addition of 2 μl/well of ZIKV. Incubation time of compound-treated cells with ZIKV varied based on assay format. Experiments measuring virus-induced caspase 3/7 activity required a 6 hour incubation of ZIKV in the presence compounds at 37° C. in 5% CO2. Following this incubation, 3.5 μl/well of caspase 3/7 reagent mixture was added to assay plates. The plates were incubated for 30 minutes at room temperature, and the resultant luminescence signal was measured using a ViewLux plate reader (Perkin Elmer). Experiments measuring virus-induced cell death required a 72-hour incubation of ZIKV in the presence of compounds at 37° C. in 5% CO2. Following this incubation, 3.5 μl/well of ATP content detection reagent was added to assay plates, incubated for 30 minutes at the room temperature, and the resultant luminescence signal was measured in a ViewLux plate reader.
(§2) Caspase-Glo 3/7 assay kit (Promega) was used to detect caspase 3/7 activity. Reagents were reconstituted as described in the protocol from the manufacturer. Cells were seeded in 384- and 1536-well assay plates and cultured at 37° C. with 5% CO2 for 16 hours. ZIKV solution was added to cells, followed by incubation at 37° C. with 5% CO2 for 6 hours. Caspase-Glo 3/7 was added to each well at a 1:1 ratio, unless otherwise specified, and incubated at room temperature for 30 minutes. The luminescence intensity of the assay plates was measured using a ViewLux plate reader (PerkinElmer). Data was normalized by using the cell-containing wells without ZIKV as a negative (0% induction of caspase 3/7 activity) control and wells containing ZIKV infected cells that induced caspase 3/7 activity were used as a positive control (100% induction of caspase 3/7 activity).
Human NPCs were seeded onto PDL coated 1536-well assay plates at 250 cells per 3 μl/well and incubated at 37° C. in 5% CO2 for 16 hours. Test compounds dissolved in DMSO were transferred to assay plates at a volume of 23 nl/well by an automated pintool workstation (Wako Automation, San Diego, Calif.). Compounds were incubated with cells for 30 minutes at 37° C. in 5% CO2, immediately followed by the addition of 2 μl/well of ZIKV. Incubation time of compound-treated cells with ZIKV varied based on assay format. Experiments measuring virus induced caspase 3/7 activity required a 6 hour incubation of ZIKV in the presence compounds at 37° C. in 5% CO2. […]

[2] = system: ZIKV-induced caspase 3/7 activity in SNB-19 cells; experiment: Caspase 3/7 activity assay, ZIKV-infected SNB-19 cells; assay type: cell-based; settings: Homo sapiens
Experimental: as §1, with “activity). […]” for “activity).”
as §2, with “activity). […]” for “activity).”

[3] = system: ZIKV-induced cell death in human astrocytes; experiment: ATP cell viability assay for ZIKV-induced cell death, human astrocytes; assay type: cell-based; settings: for IC50: Astrocyte, read-out: Cell viability (IC50, uM) Astrocyte
[4] = system: ZIKV-induced caspase 3/7 activity in human astrocytes; experiment: Caspase 3/7 activity assay, ZIKV-infected human astrocytes; assay type: cell-based; settings: Astrocyte; for IC50: read-out: Caspase 3 (IC50, uM) Astrocyte; for Emax: read-out: Caspase 3 (efficacy, %) Astrocyte
Experimental: as §1, with “activity). […]” for “activity).”
as §2, with “activity). […]” for “activity).”

[5] = system: ZIKV-induced cell death in SNB-19 cells; experiment: ATP cell viability assay for ZIKV-induced cell death, SNB-19 cells; assay type: cell-based, human; settings: for IC50: Homo sapiens
Experimental: (§3) The reagent was reconstituted and prepared as described by the manufacturer. In order to measure the cell death caused by ZIKV infection, cells were cultured for 16 hours at 37° C. with 5% CO2 in assay plates, followed by the addition of ZIKV solution and incubation at 37° C. with 5% CO2 for 72 hours. ATPlite, the ATP monitoring reagent, was then added to the assay plates and they were incubated for 15 minutes. The resulting luminescence was measured using the ViewLux plate reader (Perkin Elmer). Data were normalized using the wells without cells as a control for 100% cell killing, and cell-containing wells without ZIKV infection were used as full cell viability (0% cell killing). […]
as §3, with “The ATPlite luminescence assay system assay kit (PerkinElmer) was used to determine cell viability. The reagent” for “The reagent”, “by the manufacture. In order” for “by the manufacturer. In order”, “followed by addition of” for “followed by the addition of”, “plates and incubated for” for “plates and they were incubated for”, “Elmer). Data was normalized using” for “Elmer). Data were normalized using”

[6] = ZIKV-infected SNB-19 cells, read-out: Caspase 3 (IC50, uM) SNB-19
[7] = ZIKV-infected SNB-19 cells, read-out: Caspase 3 (efficacy, %) SNB-19
[8] = ZIKV-infected SNB-19 cells, read-out: Cell viability (IC50, uM) SNB-19

## O=C(/C=C/c1ccc(O)cc1)c1ccc(O)cc1O [Isoliquiritigenin]
[1]; ZIKV-infected hNPCs
  IC50: 1.84 µM
  Emax: 89%
[2]; [6]
  IC50: 2.18 µM
[2]; [7]
  Emax: 96.9%
[3]; ZIKV-infected human astrocytes
  Cell viability (efficacy, %) Astrocyte: 0.0%
[4]; ZIKV-infected human astrocytes
  IC50: 3.08 µM
  Emax: 95.1%
[5]; [8]
  IC50: 3.08 µM
[5]; ZIKV-infected SNB-19 cells
  Cell viability (efficacy, %) SNB-19: 36.3%

## Cc1oncc1C(=O)Nc1ccc(C(F)(F)F)cc1 [Leflunomide]
[1]; ZIKV-infected hNPCs
  IC50: 1.38 µM
  Emax: 97.8%
[2]; [6]
  IC50: 3.27 µM
[2]; [7]
  Emax: 106%
[3]; ZIKV-infected human astrocytes
  Cell viability (efficacy, %) Astrocyte: 0.0%
[4]; ZIKV-infected human astrocytes
  IC50: 4.35 µM
  Emax: 98.1%
[5]; ZIKV-infected SNB-19 cells
  Cell viability (efficacy, %) SNB-19: 0.0%

## O=C1C[C@@H](c2ccc(O)cc2)Oc2cc(O)cc(O)c21 [Naringenin]
[1]; ZIKV-infected hNPCs
  IC50: 15.5 µM
  Emax: 63.4%
[2]; [6]
  IC50: 15.5 µM
[2]; [7]
  Emax: 66.3%
[3]; ZIKV-infected human astrocytes
  Cell viability (efficacy, %) Astrocyte: 0.0%
[4]; ZIKV-infected human astrocytes
  IC50: 17.3 µM
  Emax: 65.2%
[5]; ZIKV-infected SNB-19 cells
  Cell viability (efficacy, %) SNB-19: 0.0%

## COc1cccc2c1C(=O)c1c(O)c3c(c(O)c1C2=O)C[C@@](O)(C(=O)CO)C[C@@H]3O[C@H]1C[C@H](N2CCO[C@H](OC)C2)[C@H](O)[C@H](C)O1 [Nemorubicin]
[1]
  Emax: 82.9%
[2]; SNB-19, read-out: Caspase 3 (IC50, uM) SNB-19
  IC50: 30.8 µM
[2]; SNB-19, read-out: Caspase 3 (efficacy, %) SNB-19
  Emax: 53.1%
[3]; Homo sapiens
  IC50: 0.87 µM
[3]; ZIKV-infected human astrocytes
  Cell viability (efficacy, %) Astrocyte: 146%
[4]; Homo sapiens
  IC50: 15.5 µM
  Emax: 42.6%
[5]; SNB-19, read-out: Cell viability (IC50, uM) SNB-19
  IC50: 0.41 µM
[5]; ZIKV-infected SNB-19 cells
  Cell viability (efficacy, %) SNB-19: 117%

## CC(=O)Oc1ccccc1C(=O)Nc1ncc([N+](=O)[O-])s1 [Nitazoxanide]
[1]; ZIKV-infected hNPCs
  IC50: 1.26 µM
  Emax: 82.3%
[2]; [6]
  IC50: 2.24 µM
[2]; [7]
  Emax: 86.4%
[3]; ZIKV-infected human astrocytes
  IC50: 31.6 µM
  Cell viability (efficacy, %) Astrocyte: 53.6%
[4]; ZIKV-infected human astrocytes
  IC50: 2 µM
  Emax: 90.3%
[5]; [8]
  IC50: 23.7 µM
[5]; ZIKV-infected SNB-19 cells
  Cell viability (efficacy, %) SNB-19: 62.1%

## O=C(Nc1ccc(OC(F)(F)F)cc1)c1sccc1NCc1ccnc2ccccc12 [OSI-930]
[1]; ZIKV-infected hNPCs
  IC50: 6.9 µM
  Emax: 96.9%
[2]; [6]
  IC50: 6.9 µM
[2]; [7]
  Emax: 114%
[3]; ZIKV-infected human astrocytes
  Cell viability (efficacy, %) Astrocyte: 0.0%
[4]; ZIKV-infected human astrocytes
  IC50: 8.2 µM
  Emax: 91.5%
[5]; [8]
  IC50: 3.08 µM
[5]; ZIKV-infected SNB-19 cells
  Cell viability (efficacy, %) SNB-19: 71.2%

## Nc1ccc(/N=N/c2ccccc2)c(N)n1 [Phenazopyridine hydrochloride]
[1]; ZIKV-infected hNPCs
  IC50: 11.6 µM
  Emax: 72.5%
[2]; [6]
  IC50: 16.4 µM
[2]; [7]
  Emax: 73.7%
[3]; ZIKV-infected human astrocytes
  Cell viability (efficacy, %) Astrocyte: 0.0%
[4]; ZIKV-infected human astrocytes
  IC50: 15.5 µM
  Emax: 69.9%
[5]; [8]
  IC50: 27.5 µM
[5]; ZIKV-infected SNB-19 cells
  Cell viability (efficacy, %) SNB-19: 35.3%

## CN1CC[C@@]2(C)c3cc(OC(=O)Nc4ccccc4)ccc3N(C)[C@@H]12 [Phenserine]
[1]; ZIKV-infected hNPCs
  IC50: 25.9 µM
  Emax: 51.5%
[2]; [6]
  IC50: 19.5 µM
[2]; [7]
  Emax: 38.4%
[3]; ZIKV-infected human astrocytes
  Cell viability (efficacy, %) Astrocyte: 0.0%
[4]; ZIKV-infected human astrocytes
  IC50: 25.9 µM
  Emax: 47.4%
[5]; ZIKV-infected SNB-19 cells
  Cell viability (efficacy, %) SNB-19: 0.0%

## Clc1ccccc1-c1nc(-c2ccncc2)no1 [Pifexole]
[1]; ZIKV-infected hNPCs
  IC50: 4.61 µM
  Emax: 92.2%
[2]; [6]
  IC50: 8.2 µM
[2]; [7]
  Emax: 83.6%
[3]; ZIKV-infected human astrocytes
  Cell viability (efficacy, %) Astrocyte: 0.0%
[4]; ZIKV-infected human astrocytes
  IC50: 6.9 µM
  Emax: 86.3%
[5]; ZIKV-infected SNB-19 cells
  Cell viability (efficacy, %) SNB-19: 0.0%

## O=C(/C=C/C=C/c1ccc2c(c1)OCO2)N1CCCCC1 [Piperine]
[1]; ZIKV-infected hNPCs
  IC50: 13.8 µM
  Emax: 66%
[2]; [6]
  IC50: 19.5 µM
[2]; [7]
  Emax: 75.5%
[3]; ZIKV-infected human astrocytes
  Cell viability (efficacy, %) Astrocyte: 0.0%
[4]; ZIKV-infected human astrocytes
  IC50: 20.6 µM
  Emax: 73.9%
[5]; ZIKV-infected SNB-19 cells
  Cell viability (efficacy, %) SNB-19: 0.0%

## COc1cccc2c1C(=O)c1c(O)c3c(c(O)c1C2=O)C[C@@](O)(C(=O)CO)C[C@@H]3O[C@H]1C[C@H](N)[C@H](O[C@@H]2CCCCO2)[C@H](C)O1 [Pirarubicin]
[1]; ZIKV-infected hNPCs
  Emax: 51.5%
[2]; [6]
  IC50: 20.6 µM
[2]; [7]
  Emax: 63.9%
[3]; ZIKV-infected human astrocytes
  Cell viability (efficacy, %) Astrocyte: 0.0%
[4]; ZIKV-infected human astrocytes
  IC50: 13.8 µM
  Emax: 59.8%
[5]; ZIKV-infected SNB-19 cells
  Cell viability (efficacy, %) SNB-19: 0.0%
